Activity calls are given as the source filed them. The rule behind the calls is not given here.
Legend:
SK-HEP1 [1] = experiment: Effect on human SK-HEP1 cells assessed as increase in miR-497-5p level by qRT-PCR analysis; format: functional, cell-based
SK-HEP1 [2] = experiment: Inhibition of epithelial-mesenchymal transition in human SK-HEP1 cells assessed as change in vimentin expression at 10 to 50 uM incubated for 24 hrs by Western blot analysis; format: functional, cell-based; settings: dose 10-50 µM
[3] = target: MAP kinase p38 (Homo sapiens) (UniProt O15264+Q15759+Q16539+P53778); experiment: Inhibition of p38 phosphorylation in human SK-HEP1 cells at 30 uM by Western blot analysis; format: cell-based
SK-HEP1 [4] = experiment: Inhibition of cell migration in human SK-HEP1 cells overexpressing TRBP at 20 uM measured after 12 hrs using crystal violet staining inverted microscope based transwell assay; format: functional
[5] = Toxicity in SCID mouse xenografted with human MHCC97 cells assessed as increase in body weight at 40 mg/kg, ip administered once every 3 day for 30 days; format: organism-based; settings: in vivo, 720 h, time 30 day
SK-HEP1 [6] = experiment: Antiproliferative activity against human SK-HEP1 cells assessed as increase in miR-224-5p level at 20 uM by qRT-PCR analysis; format: functional, cell-based
SK-HEP1 [7] = experiment: Inhibition of cell migration in human SK-HEP1 cells at 30 uM incubated for 12 hrs by crystal violet staining based transwell assay; format: functional
MHCC97 [8] = experiment: Antitumor activity against human MHCC97 cells xenografted in SCID mouse assessed as decrease in tumor size at 20 mg/kg, ip administered once every 3 days and measured after 10 days; format: functional, organism-based; settings: time 10.0 day
HeLa = experiment: Antiproliferative activity against human HeLa cells assessed as increase in miR-21 biogenesis level measured after 24 hrs by luciferase assay; format: functional, cell-based
MHCC97 [9] = experiment: Inhibition of colony formation in human MHCC97H cells at 30 uM incubated for 14 days by crystal violet staining based assay; format: functional, cell-based; settings: time 14.0 day
Huh-7 [10] = experiment: Inhibition of colony formation in human Huh-7 cells at 30 uM incubated for 14 days by crystal violet staining based assay; format: functional, cell-based; settings: time 14.0 day
SK-HEP1 [11] = experiment: Antiproliferative activity against human SK-HEP1 cells assessed as increase in miR-10a-5p level at 20 uM by qRT-PCR analysis; format: functional, cell-based
SK-HEP1 [12] = experiment: Antiproliferative activity against human SK-HEP1 cells assessed as increase in miR-214-5p level at 20 uM by qRT-PCR analysis; format: functional, cell-based
SK-HEP1 [13] = experiment: Inhibition of epithelial-mesenchymal transition in human SK-HEP1 cells assessed as change in N-cadherin expression at 10 to 50 uM incubated for 24 hrs by Western blot analysis; format: functional, cell-based; settings: dose 10-50 µM
MHCC97 [14] = experiment: Antiproliferative activity against human MHCC97 cells incubated for 24 hrs by alamar blue assay; settings: MHCC97, 24 h
SK-HEP1 [15] = experiment: Inhibition of epithelial-mesenchymal transition in human SK-HEP1 cells assessed as change in E-cadherin expression at 10 to 50 uM incubated for 24 hrs by Western blot analysis; format: functional, cell-based; settings: dose 10-50 µM
SK-HEP1 [16] = experiment: Inhibition of cell invasion in human SK-HEP1 cells at 30 uM incubated for 12 hrs by crystal violet staining based transwell assay; format: functional
Huh-7 [17] = experiment: Antiproliferative activity against human Huh-7 cells incubated for 24 hrs by alamar blue assay; settings: Huh-7, 24 h
SK-HEP1 [18] = experiment: Inhibition of colony formation in human SK-HEP1 cells at 10 to 50 uM incubated for 14 days by crystal violet staining based assay; format: functional, cell-based; settings: dose 10-50 µM, time 14.0 day
[19] = target: T1, Signal transducer and activator of transcription 1-alpha/beta (Homo sapiens) (UniProt P42224); experiment: Inhibition of STAT1 phosphorylation in human SK-HEP1 cells at 30 uM by Western blot analysis; format: cell-based
T1 sequence (whole entry): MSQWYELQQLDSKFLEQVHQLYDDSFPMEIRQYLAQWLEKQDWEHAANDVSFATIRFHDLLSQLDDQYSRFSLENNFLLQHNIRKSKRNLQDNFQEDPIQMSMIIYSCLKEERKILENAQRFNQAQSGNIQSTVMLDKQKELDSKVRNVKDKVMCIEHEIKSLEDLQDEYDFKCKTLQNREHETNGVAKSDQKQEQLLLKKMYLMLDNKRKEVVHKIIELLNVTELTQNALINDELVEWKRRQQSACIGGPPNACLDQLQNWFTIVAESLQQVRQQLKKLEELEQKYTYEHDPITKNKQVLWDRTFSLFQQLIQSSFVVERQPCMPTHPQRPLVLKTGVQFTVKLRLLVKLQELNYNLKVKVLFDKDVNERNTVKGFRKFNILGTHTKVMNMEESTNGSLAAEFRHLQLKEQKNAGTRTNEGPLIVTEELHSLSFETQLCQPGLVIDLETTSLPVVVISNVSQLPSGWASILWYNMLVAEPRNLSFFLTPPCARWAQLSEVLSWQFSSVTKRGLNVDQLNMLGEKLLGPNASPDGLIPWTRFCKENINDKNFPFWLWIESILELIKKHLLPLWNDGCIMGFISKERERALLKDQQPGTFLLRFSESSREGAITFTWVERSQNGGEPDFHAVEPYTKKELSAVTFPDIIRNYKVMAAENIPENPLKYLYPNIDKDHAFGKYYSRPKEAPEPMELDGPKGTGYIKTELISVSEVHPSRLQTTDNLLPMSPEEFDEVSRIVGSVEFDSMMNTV

MHCC97 [20] = experiment: Antitumor activity in human MHCC97 cells xenografted in SCID mouse assessed as reduction in infiltration of inflammatory cells in left middle lobe of liver at 40 mg/kg, ip measured after 30 days by H and E staining based immunohistochemical analysis; format: functional, organism-based; settings: time 30.0 day
SK-HEP1 [21] = experiment: Inhibition of MEK phosphorylation in human SK-HEP1 cells at 30 uM by Western blot analysis; format: cell-based
MHCC97 [22] = experiment: Antitumor activity in human MHCC97 cells xenografted in SCID mouse assessed as suppression of tumor growth at 20 mg/kg, ip administered once every 3 day for 30 days by bioluminescence analysis; format: functional, organism-based; settings: time 30.0 day
SK-HEP1 [23] = experiment: Effect on human SK-HEP1 cells assessed as decrease in miR-10b-5p level at 10 to 50 uM by qRT-PCR analysis; format: functional, cell-based; settings: dose 10-50 µM
[24] = target: Serine/threonine-protein kinase AKT (Homo sapiens) (UniProt P31751+Q9Y243+P31749); experiment: Inhibition of AKT phosphorylation in human SK-HEP1 cells at 30 uM by Western blot analysis; format: cell-based
HepG2 = experiment: Antiproliferative activity against human HepG2 cells at 25 uM incubated for 24 hrs by alamar blue assay; format: functional, cell-based
SK-HEP1 [25] = experiment: Effect on AGO2 protein expression in human SK-HEP1 cells at 30 uM after 24 hrs by immunoblot analysis; format: functional, cell-based
SK-HEP1 [26] = experiment: Induction of cell cycle arrest in human SK-HEP1 cells assessed as S phase accumulation at 20 uM incubated for 24 hrs by propidium iodide staining based flow cytometry analysis (reference value: 26.72%); format: functional
SK-HEP1 [27] = experiment: Antiproliferative activity against human SK-HEP1 cells assessed as increase in miR-452-5p level at 20 uM by qRT-PCR analysis; format: functional, cell-based
SK-HEP1 [28] = experiment: Effect on Dicer protein expression in human SK-HEP1 cells at 30 uM after 24 hrs by immunoblot analysis; format: functional, cell-based

Sequence of Serine/threonine-protein kinase AKT (Homo sapiens) (P31749 whole entry, looked up): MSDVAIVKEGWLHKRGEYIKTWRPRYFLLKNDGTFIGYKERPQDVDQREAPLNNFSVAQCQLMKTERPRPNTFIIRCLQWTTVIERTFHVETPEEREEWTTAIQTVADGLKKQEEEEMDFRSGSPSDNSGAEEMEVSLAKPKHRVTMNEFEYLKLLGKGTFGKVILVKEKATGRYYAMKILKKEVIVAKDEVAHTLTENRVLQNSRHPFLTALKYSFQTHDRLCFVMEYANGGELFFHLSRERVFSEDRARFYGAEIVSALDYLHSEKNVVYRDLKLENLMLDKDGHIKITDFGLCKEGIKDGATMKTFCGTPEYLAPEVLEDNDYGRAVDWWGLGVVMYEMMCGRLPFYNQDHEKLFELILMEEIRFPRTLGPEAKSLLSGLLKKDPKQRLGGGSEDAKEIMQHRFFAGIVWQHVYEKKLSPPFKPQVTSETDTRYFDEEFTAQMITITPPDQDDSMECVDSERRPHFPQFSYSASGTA
Sequence of Serine/threonine-protein kinase AKT (Homo sapiens) (P31751 whole entry, looked up): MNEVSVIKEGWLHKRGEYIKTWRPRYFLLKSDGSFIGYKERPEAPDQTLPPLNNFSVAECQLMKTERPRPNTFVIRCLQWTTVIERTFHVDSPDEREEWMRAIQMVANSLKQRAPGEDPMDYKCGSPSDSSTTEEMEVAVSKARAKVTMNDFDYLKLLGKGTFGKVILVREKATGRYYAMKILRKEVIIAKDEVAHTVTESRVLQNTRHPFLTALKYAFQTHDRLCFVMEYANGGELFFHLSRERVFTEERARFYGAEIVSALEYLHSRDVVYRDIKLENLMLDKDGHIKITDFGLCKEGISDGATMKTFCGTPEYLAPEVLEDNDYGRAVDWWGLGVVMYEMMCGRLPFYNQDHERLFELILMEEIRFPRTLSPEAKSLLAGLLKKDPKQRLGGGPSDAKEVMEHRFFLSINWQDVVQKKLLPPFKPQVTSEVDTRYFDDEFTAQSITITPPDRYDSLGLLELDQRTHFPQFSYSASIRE
Sequence of Serine/threonine-protein kinase AKT (Homo sapiens) (Q9Y243 whole entry, looked up): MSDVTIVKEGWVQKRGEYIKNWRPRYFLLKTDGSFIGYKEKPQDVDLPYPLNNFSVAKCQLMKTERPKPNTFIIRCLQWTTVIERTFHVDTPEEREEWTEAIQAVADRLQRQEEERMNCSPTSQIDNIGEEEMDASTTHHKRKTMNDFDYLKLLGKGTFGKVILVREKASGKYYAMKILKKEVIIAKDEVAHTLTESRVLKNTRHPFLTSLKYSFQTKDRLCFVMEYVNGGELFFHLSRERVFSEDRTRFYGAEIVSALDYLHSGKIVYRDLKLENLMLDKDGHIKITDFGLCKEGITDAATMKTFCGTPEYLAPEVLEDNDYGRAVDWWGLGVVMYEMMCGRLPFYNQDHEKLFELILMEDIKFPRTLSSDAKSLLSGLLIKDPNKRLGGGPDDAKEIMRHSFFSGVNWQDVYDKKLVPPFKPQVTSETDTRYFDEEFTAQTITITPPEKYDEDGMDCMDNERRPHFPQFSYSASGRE

In the case of COc1cc2c(c(O)c1OC)-c1c(cc3c(c1OC)OCO3)C[C@H](C)[C@H](C)C2, the Activity (SK-HEP1 [1]) is reported as “Dose-Dependent Effect”, the inhibition (SK-HEP1 [2]) is reported as “inactive” and the inhibition [3] is reported as “inactive”. The inhibition (SK-HEP1 [4]) was “Active”, the Activity [5] was “Toxic” and the Activity (SK-HEP1 [6]) was “inactive”. The inhibition (SK-HEP1 [7]) was “Active”, the Activity (MHCC97 [8]) was “Active” and the IC50 (HeLa) was 17.2 µM. The inhibition (MHCC97 [9]) was “Active”, the inhibition (Huh-7 [10]) was “Active” and the Activity (SK-HEP1 [11]) was “inactive”. The Activity (SK-HEP1 [12]) was “Active”, the inhibition (SK-HEP1 [13]) was “inactive” and the IC50 (MHCC97 [14]) was 24.8 µM. For the same compound, the inhibition (SK-HEP1 [15]) was “inactive”, the inhibition (SK-HEP1 [16]) was “Active” and the IC50 (Huh-7 [17]) was 32.2 µM. For the same compound, the inhibition (SK-HEP1 [18]) was “Active”, the inhibition [19] was “inactive” and the Activity (MHCC97 [20]) was “Active”. For the same compound, the inhibition (SK-HEP1 [21]) was “Active”, the Activity (MHCC97 [22]) was “Active” and the Activity (SK-HEP1 [23]) was “Active”. The inhibition [24] was “Active”, the Activity (HepG2) was “Active” and the Activity (SK-HEP1 [25]) was “inactive”. For the same compound, the Activity (SK-HEP1 [26]) was 22.3%, the Activity (SK-HEP1 [27]) was “inactive” and the Activity (SK-HEP1 [28]) was “inactive”.

Reference: ChEMBL document CHEMBL5038591, “Identification of a Novel TAR RNA-Binding Protein 2 Modulator with Potential Therapeutic Activity against Hepatocellular Carcinoma” (J Med Chem, 2021)
